# Assay results published in patent US20110236504A1, “VERSATILE DISINFECTANT” (priority 2008, published 2011).
# Assays:
# S. aureus 209P = test: Metal ion or food preservative added to growth medium, viable count; assay type: cell-based
# Method: (§1) To a standard medium for counting viable bacteria described below, each metal ion with varied concentration was added. […] Then, the number of viable bacteria was counted with time in a common procedure.
# (§2) Sample bacteria: S. aureus 209P as a representative of Gram-positive bacteria • E. coli 0-157 as a representative of Gram-negative bacteria
# (§3) Standard medium for counting viable bacteria: yeast extract 2.5 g, peptone 5 g, glucose 1 g, agar 15 g, pH 7.2
# E. coli O-157 [1] = test: as above; assay type: cell-based; conditions: food preservative in growth medium
# [2] = tested on: sample bacteria (S. aureus 209P, E. coli O-157); test: Death rate over time, food preservative in purified water pH 3.0
# E. coli O-157 [3] = test: Metal ion or food preservative added to growth medium, viable count; assay type: cell-based; conditions: metal ion in growth medium
# Method: as §1, §2, §3
# [4] = food preservative in growth medium
SMILES,"(a) Antiproliferative activity, concentration (S. aureus 209P; [4])","(b) Bacteriostatic activity, concentration (S. aureus 209P; [4])","(a) Antiproliferative activity, concentration (E. coli O-157 [1])","(b) Bacteriostatic activity, concentration (E. coli O-157 [1])","Death rate ([2]; 50 ppm, 5 min)","Death rate ([2]; 50 ppm, 10 min)","Death rate ([2]; 50 ppm, 15 min)","Death rate ([2]; 50 ppm, 30 min)","Death rate ([2]; 50 ppm, 60 min)","Death rate ([2]; 50 ppm, 90 min)","Death rate ([2]; 50 ppm, 120 min)","Death rate ([2]; 200 ppm, 5 min)","Death rate ([2]; 200 ppm, 10 min)","Death rate ([2]; 200 ppm, 15 min)","Death rate ([2]; 200 ppm, 30 min)","Death rate ([2]; 200 ppm, 60 min)","Death rate ([2]; 200 ppm, 90 min)","Death rate ([2]; 200 ppm, 120 min)","Death rate ([2]; 500 ppm, 5 min)","Death rate ([2]; 500 ppm, 10 min)",further results
CCOC(=O)c1ccc(O)cc1 [Ethyl para-hydroxybenzoate],50~300 ppm,250 ppm>,40~300 ppm,230 ppm>,0,0,0,2,5,8,12,0,0,0,2,5,10,12,0,0,"Death rate ([2]; 500 ppm, 15 min): 0; Death rate ([2]; 500 ppm, 30 min): 2; Death rate ([2]; 500 ppm, 60 min): 7; Death rate ([2]; 500 ppm, 90 min): 12; Death rate ([2]; 500 ppm, 120 min): 15"
O=C([O-])c1ccccc1.[Na+] [Sodium benzoate],40~300 ppm,250 ppm>,40~300 ppm,220 ppm>,0,0,0,2,5,8,10,0,0,0,2,5,10,12,0,0,"Death rate ([2]; 500 ppm, 15 min): 1; Death rate ([2]; 500 ppm, 30 min): 3; Death rate ([2]; 500 ppm, 60 min): 8; Death rate ([2]; 500 ppm, 90 min): 12; Death rate ([2]; 500 ppm, 120 min): 15"
O=C(O)c1ccccc1 [Benzoic acid],25~200 ppm,180 ppm>,25~200 ppm,180 ppm>,0,0,0,1,5,10,12,0,0,0,2,7,10,12,0,0,"Death rate ([2]; 500 ppm, 15 min): 1; Death rate ([2]; 500 ppm, 30 min): 3; Death rate ([2]; 500 ppm, 60 min): 8; Death rate ([2]; 500 ppm, 90 min): 12; Death rate ([2]; 500 ppm, 120 min): 15"
"O.O.O.O.O.O.[Cl-].[Cl-].[Co+2] [Co^2+, CoCl2•6H2O]",–,–,–,–,–,–,–,–,–,–,–,–,–,–,–,–,–,–,–,–,"(a) Antiproliferative activity, concentration (E. coli O-157 [3]): 100~250 ppm; (b) Bacteriostatic activity, concentration (E. coli O-157 [3]): 220~500 ppm; (c) Bactericidal activity, concentration (E. coli O-157 [3]): 500 ppm>; Acceleration of growth, concentration (E. coli O-157 [3]): 25 ppm<; (c) Bactericidal activity, concentration (S. aureus 209P; metal ion in growth medium): 500 ppm>; Acceleration of growth, concentration (S. aureus 209P; metal ion in growth medium): 20 ppm<"
"O.O.O.O.O.O.O.O=S(=O)([O-])[O-].[Ni+2] [Ni^2+, NiSO4•7H2O]",–,–,–,–,–,–,–,–,–,–,–,–,–,–,–,–,–,–,–,–,"(a) Antiproliferative activity, concentration (E. coli O-157 [3]): 20~170 ppm; (b) Bacteriostatic activity, concentration (E. coli O-157 [3]): 150~350 ppm; (c) Bactericidal activity, concentration (E. coli O-157 [3]): 350 ppm>; Acceleration of growth, concentration (E. coli O-157 [3]): 10 ppm<; (a) Antiproliferative activity, concentration (S. aureus 209P; metal ion in growth medium): 25~150 ppm; (b) Bacteriostatic activity, concentration (S. aureus 209P; metal ion in growth medium): 120~300 ppm; (c) Bactericidal activity, concentration (S. aureus 209P; metal ion in growth medium): 300 ppm>; Acceleration of growth, concentration (S. aureus 209P; metal ion in growth medium): 5 ppm<"
